How the values were obtained:
Dasatinib = compound: CC1=C(C(=CC=C1)Cl)NC(=O)C2=CN=C(S2)NC3=CC(=NC(=N3)C)N4CCN(CC4)CCO [Dasatinib]; settings: max 2 µM
Method in brief: (§1)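 Cancer cell lines in 1536-well plates (7.5 μl DMEM/F12 or RPMI, 10% FBS) were held 24 hours at 37°C and 5% CO2 and then dosed for 72 hours at a final DMSO of typically 0.2%. Viability was taken from CellTiter-Glo 2.0 luminescence, scaled between blank-well and DMSO-well means. Curves were fitted as two-parameter logistic models with a non-linear mixed effects model, from which the single-agent IC50 was taken.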

Gemcitabine = compound: Nc1ccn([C@@H]2O[C@H](CO)[C@@H](O)C2(F)F)c(=O)n1 [Gemcitabine]; settings: max 0.3 µM
Method in brief: as §1

Alisertib = compound: COc1cc(Nc2ncc3c(n2)-c2ccc(Cl)cc2C(c2c(F)cccc2OC)=NC3)ccc1C(=O)O [Alisertib]; settings: max 10 µM
Method in brief: as §1

SG3199 = compound: CC1=CN2[C@@H](C1)C=NC3=CC(=C(C=C3C2=O)OC)OCCCCCOC4=C(C=C5C(=C4)N=C[C@@H]6CC(=CN6C5=O)C)OC [SG3199]; settings: max 0.001 µM
Method in brief: as §1

MK-2206 = compound: NC1(c2ccc(-c3nc4ccn5c(=O)[nH]nc5c4cc3-c3ccccc3)cc2)CCC1 [MK-2206]; settings: max 10 µM
Method in brief: as §1

Paclitaxel = compound: CC(=O)O[C@H]1C(=O)[C@@]2(C)[C@H]([C@H](OC(=O)c3ccccc3)[C@]3(O)C[C@H](OC(=O)[C@H](O)[C@@H](NC(=O)c4ccccc4)c4ccccc4)C(C)=C1C3(C)C)[C@]1(OC(C)=O)CO[C@@H]1C[C@@H]2O [Paclitaxel]; settings: max 3 µM
Method in brief: as §1

AZD1390 = compound: CC(C)n1c(=O)n(C)c2cnc3cc(F)c(-c4ccc(OCCCN5CCCCC5)nc4)cc3c21 [AZD1390]; settings: max 0.3 µM
Method in brief: as §1

Olaparib = compound: O=C(c1cc(Cc2n[nH]c(=O)c3ccccc23)ccc1F)N1CCN(C(=O)C2CC2)CC1 [Olaparib]; settings: max 10 µM
Method in brief: as §1

Doxorubicin = compound: COc1cccc2c1C(=O)c1c(O)c3c(c(O)c1C2=O)C[C@@](O)(C(=O)CO)C[C@@H]3O[C@H]1C[C@H](N)[C@H](O)[C@H](C)O1 [Doxorubicin]; settings: max 1 µM
Method in brief: as §1

AZD5991 = compound: Cc1c2c(nn1C)CSCc1cc(n(C)n1)CSc1cc(c3ccccc3c1)OCCCc1c(C(=O)O)n(C)c3c-2c(Cl)ccc13 [AZD5991]; settings: max 1 µM
Method in brief: as §1

Selumetinib = compound: Cn1cnc2c(F)c(Nc3ccc(Br)cc3Cl)c(C(=O)NOCCO)cc21 [Selumetinib]; settings: max 10 µM
Method in brief: as §1

Venetoclax = compound: CC1(C)CCC(CN2CCN(c3ccc(C(=O)NS(=O)(=O)c4ccc(NCC5CCOCC5)c([N+](=O)[O-])c4)c(Oc4cnc5[nH]ccc5c4)c3)CC2)=C(c2ccc(Cl)cc2)C1 [Venetoclax]; settings: max 1 µM
Method in brief: as §1

SN-38 = compound: CCc1c2c(nc3ccc(O)cc13)-c1cc3c(c(=O)n1C2)COC(=O)[C@]3(O)CC [SN-38]; settings: max 0.3 µM
Method in brief: as §1

Gefitinib = compound: COc1cc2ncnc(Nc3ccc(F)c(Cl)c3)c2cc1OCCCN1CCOCC1 [Gefitinib]; settings: max 10 µM
Method in brief: as §1

AZD5153 = compound: COc1nnc2ccc(N3CCC(c4ccc(OCCN5CCN(C)C(=O)[C@H]5C)cc4)CC3)nn12 [AZD5153]; settings: max 1 µM
Method in brief: as §1

[1] = compound: O=C(Nc1ccc2[nH]nc(-c3ccncc3)c2c1)[C@@H]1CCN(CC(=O)N2CCN(c3ccc(-c4ncccn4)cc3)CC2)C1; settings: max 5 µM
Method in brief: as §1

Etoposide = compound: COc1cc([C@@H]2c3cc4c(cc3[C@@H](O[C@@H]3O[C@@H]5CO[C@@H](C)O[C@H]5[C@H](O)[C@H]3O)[C@H]3COC(=O)[C@H]23)OCO4)cc(OC)c1O [Etoposide]; settings: max 10 µM
Method in brief: as §1

Prexasertib = compound: COc1cccc(OCCCN)c1-c1cc(Nc2cnc(C#N)cn2)n[nH]1 [Prexasertib]; settings: max 1 µM
Method in brief: as §1

AZD0156 = compound: CN(C)CCCOc1ccc(-c2ccc3ncc4c(c3c2)n(C2CCOCC2)c(=O)n4C)cn1 [AZD0156]; settings: max 3 µM
Method in brief: as §1

SRA737 = compound: N#Cc1cnc(Nc2cc(NC[C@H]3CNCCO3)c(C(F)(F)F)cn2)cn1 [SRA737]; settings: max 10 µM
Method in brief: as §1

Lapatinib = compound: CS(=O)(=O)CCNCc1ccc(-c2ccc3ncnc(Nc4ccc(OCc5cccc(F)c5)c(Cl)c4)c3c2)o1 [Lapatinib]; settings: max 10 µM
Method in brief: as §1

Taselisib = compound: Cc1nc(-c2cn3c(n2)-c2ccc(-c4cnn(C(C)(C)C(N)=O)c4)cc2OCC3)n(C(C)C)n1 [Taselisib]; settings: max 10 µM
Method in brief: as §1

Trametinib = compound: CC(=O)Nc1cccc(-n2c(=O)n(C3CC3)c(=O)c3c(Nc4ccc(I)cc4F)n(C)c(=O)c(C)c32)c1 [Trametinib]; settings: max 1 µM
Method in brief: as §1

AZD2811 = compound: CCN(CCO)CCCOc1ccc2c(Nc3cc(CC(=O)Nc4cccc(F)c4)[nH]n3)ncnc2c1 [AZD2811]; settings: max 1 µM
Method in brief: as §1

AZD1775 = compound: C=CCn1c(=O)c2cnc(Nc3ccc(N4CCN(C)CC4)cc3)nc2n1-c1cccc(C(C)(C)O)n1 [AZD1775]; settings: max 3 µM
Method in brief: as §1

AZD4320 = compound: CN(CC[C@H](CSC1=CC=CC=C1)NC2=C(C=C(C=C2)S(=O)(=O)NC(=O)C3=CC=C(C=C3)N4CCC(CC4)[C@H](C5=CC=CC=C5C6=CC=C(C=C6)Cl)O)S(=O)(=O)C(F)(F)F)CCO [AZD4320]; settings: max 1 µM
Method in brief: as §1

AZD5363 = compound: C1CN(CCC1(C(=O)N[C@@H](CCO)C2=CC=C(C=C2)Cl)N)C3=NC=NC4=C3C=CN4 [AZD5363]; settings: max 10 µM
Method in brief: as §1

AZD6738 = compound: C[C@@H]1COCCN1C2=NC(=NC(=C2)C3(CC3)[S@](=N)(=O)C)C4=C5C=CNC5=NC=C4 [AZD6738]; settings: max 10 µM
Method in brief: as §1

Carboplatin = compound: C1CC(C1)(C(=O)[O-])C(=O)[O-].N.N.[Pt+2] [Carboplatin]; settings: max 10 µM
Method in brief: as §1

5-Fluorouracil = compound: O=c1[nH]cc(F)c(=O)[nH]1 [5-Fluorouracil]; settings: max 20 µM
Method in brief: as §1

Savolitinib = compound: C[C@@H](c1ccc2nccn2c1)n1nnc2ncc(-c3cnn(C)c3)nc21 [Savolitinib]; settings: max 1 µM
Method in brief: as §1

AZD8186 = compound: C[C@@H](Nc1cc(F)cc(F)c1)c1cc(C(=O)N(C)C)cc2c(=O)cc(N3CCOCC3)oc12 [AZD8186]; settings: max 10 µM
Method in brief: as §1

Crizotinib = compound: C[C@@H](Oc1cc(-c2cnn(C3CCNCC3)c2)cnc1N)c1c(Cl)ccc(F)c1Cl [Crizotinib]; settings: max 10 µM
Method in brief: as §1

Palbociclib = compound: CC(=O)c1c(C)c2cnc(Nc3ccc(N4CCNCC4)cn3)nc2n(C2CCCC2)c1=O [Palbociclib]; settings: max 10 µM
Method in brief: as §1

AZD7648 = compound: Cc1cc2ncnn2cc1Nc1ncc2c(n1)n(C1CCOCC1)c(=O)n2C [AZD7648]; settings: max 10 µM
Method in brief: as §1

| Cell Line | IC50, cell viability 72 h (Dasatinib) [nM] | IC50, cell viability 72 h (Gemcitabine) [nM] | IC50, cell viability 72 h (Alisertib) [nM] | IC50, cell viability 72 h (SG3199) [nM] | IC50, cell viability 72 h (MK-2206) [nM] | IC50, cell viability 72 h (Paclitaxel) [nM] | IC50, cell viability 72 h (AZD1390) [nM] | IC50, cell viability 72 h (Olaparib) [nM] | IC50, cell viability 72 h (Doxorubicin) [nM] | IC50, cell viability 72 h (AZD5991) [nM] | IC50, cell viability 72 h (Selumetinib) [nM] | IC50, cell viability 72 h (Venetoclax) [nM] | IC50, cell viability 72 h (SN-38) [nM] | IC50, cell viability 72 h (Gefitinib) [nM] | IC50, cell viability 72 h (AZD5153) [nM] | IC50, cell viability 72 h [1] [nM] | IC50, cell viability 72 h (Etoposide) [nM] | IC50, cell viability 72 h (Prexasertib) [nM] | IC50, cell viability 72 h (AZD0156) [nM] | IC50, cell viability 72 h (SRA737) [nM] | IC50, cell viability 72 h (Lapatinib) [nM] | IC50, cell viability 72 h (Taselisib) [nM] | IC50, cell viability 72 h (Trametinib) [nM] | IC50, cell viability 72 h (AZD2811) [nM] | IC50, cell viability 72 h (AZD1775) [nM] | IC50, cell viability 72 h (AZD4320) [nM] | IC50, cell viability 72 h (AZD5363) [nM] | IC50, cell viability 72 h (AZD6738) [nM] | IC50, cell viability 72 h (Carboplatin) [nM] | IC50, cell viability 72 h (5-Fluorouracil) [nM] | IC50, cell viability 72 h (Savolitinib) [nM] | IC50, cell viability 72 h (AZD8186) [nM] | IC50, cell viability 72 h (Crizotinib) [nM] | IC50, cell viability 72 h (Palbociclib) [nM] | IC50, cell viability 72 h (AZD7648) [nM] |
| --- | --- | --- | --- | --- | --- | --- | --- | --- | --- | --- | --- | --- | --- | --- | --- | --- | --- | --- | --- | --- | --- | --- | --- | --- | --- | --- | --- | --- | --- | --- | --- | --- | --- | --- | --- |
| RPMI-6666 (Non-Cancerous) | 170 | 5.75 | 406 | > 1 | 4640 | 3.63 | > 300 | > 10000 | 58.3 | 731 | > 10000 | 174 | 2.31 | > 10000 | 154 | > 5000 | 401 | 5.81 | > 3000 | 2460 | > 10000 | 621 | > 1000 | 469 | 234 | 37.1 | 2950 | 3900 | > 10000 | 3430 | > 1000 | 1330 | 6930 | 8620 | > 10000 |
| RT-112 (Bladder Carcinoma) | > 2000 | 291 | 2220 | > 1 | > 10000 | 9.52 | > 300 | > 10000 | > 1000 | 413 | > 10000 | > 1000 | 255 | > 10000 | > 1000 | 3600 | > 10000 | 31.2 | > 3000 | > 10000 | > 10000 | 2950 | 305 | > 1000 | 549 | > 1000 | > 10000 | 4410 | > 10000 | > 20000 | > 1000 | > 10000 | > 10000 | > 10000 | > 10000 |
| SH-4 (Melanoma) | > 2000 | > 300 | > 10000 | > 1 | > 10000 | 2550 | > 300 | > 10000 | > 1000 | > 1000 | 259 | > 1000 | > 300 | > 10000 | 432 | 111 | > 10000 | 187 | > 3000 | > 10000 | > 10000 | > 10000 | 2.59 | > 1000 | 1490 | > 1000 | > 10000 | > 10000 | > 10000 | > 20000 | > 1000 | > 10000 | > 10000 | > 10000 | > 10000 |
| SK-OV-3 (Ovarian Carcinoma) | > 2000 | > 300 | > 10000 | > 1 | > 10000 | 732 | > 300 | > 10000 | > 1000 | > 1000 | > 10000 | > 1000 | > 300 | > 10000 | > 1000 | > 5000 | > 10000 | 35.5 | > 3000 | > 10000 | > 10000 | 2680 | > 1000 | > 1000 | 2450 | > 1000 | > 10000 | > 10000 | > 10000 | > 20000 | > 1000 | > 10000 | > 10000 | > 10000 | > 10000 |

— the supplement of paper PMC11061612
